According to patent publication US7670613B2, “Androgen modulators” (Pfizer Inc., priority 2004, dated 2010):

System: male C3H/HeN mice
Experiment: Modified telogen conversion assay
Format: in vivo, mouse
Settings: topical 1% and 3% w/v, twice daily for 4 weeks, observed 35 days or longer
Description: The telogen conversion assay measures the potential of a compound to convert the resting stage of the hair growth cycle (“telogen”) to the active stage of the hair growth cycle (“anagen”) in mice. This assay takes advantage of the fact that the fur (i.e. hair) of 7-week-old C3H/HeN mice is in the telogen phase. This phase continues until about 75 days of age. In this assay, selected areas of the mice are shaved, contacted with a test agent, or a control, and the difference in the rate of hair growth is measured (i.e. induction of the anagen phase). The first sign of anagen is the darkening of skin color as melanocytes in the follicles start to synthesize melanin, in preparation for the production of pigmented hairs. This model has a number of advantages. This includes the ready availability of female CH3HeN mice, the ability to screen large numbers of compounds quickly, and the ease of housing and handling such animals.
It has been discovered that male C3H/HeN mice may be used in the telogen conversion assay, when evaluating anti-androgen test compounds. Thus, the model relates to a modification of the existing telogen conversion assay. […]
The treatment area was observed and graded every other day for signs of hair growth. The hair growth response was quantified by recording, for each animal, the day on which signs of hair growth first appeared over the treated area. […]

## CC1CCCCC1Oc1ccc(C#N)c(C(F)(F)F)c1 (stereo not shown) [Example 8, 4-(2-Methyl-cyclohexyloxy)-2-trifluoromethyl-benzonitrile]
  Initiation of anagen (first signs of hair growth) versus vehicle control: not initiated in either of the test groups prior to its occurrence in the vehicle control group
